Measured values published in patent US20120100990A1, “4 -AMINOPICOLINATES AND THEIR USE AS HERBICIDES” (SYNGENTA CROP PROTECTION LLC, priority 2009, published 2012).

Assays:
Type in all cases: in vivo
Setaria faberi (SETFA) [1] = assay: Post-emergence biological efficacy, glasshouse pot test; details: 312 h, 1,000 g/ha, evaluated after 13 days, 100=total damage, 0=no damage, read-out: Percentage damage caused to weed species, post-emergence, SETFA
Procedure, shortened: (§1)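 Seeds are sown in pots of standard soil and grown 8 days under controlled glasshouse conditions (24/16 °C, 14 h photoperiod, 65% humidity). Seedlings are then sprayed at 1000 or 250 g/ha, kept under the same conditions with twice-daily watering, and assessed on a 0–100 damage scale after 13 days.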

[2] = system: Alopecurus myosuroides (ALOMY); assay: as above; details: 312 h, 1,000 g/ha, evaluated after 13 days, 100=total damage, 0=no damage, read-out: Percentage damage caused to weed species, post-emergence, ALOMY
Procedure, shortened: as §1

[3] = system: Ipomea hederaceae (IPOHE); assay: as above; details: Ipomoea hederacea, 312 h, 1,000 g/ha, evaluated after 13 days, 100=total damage, 0=no damage, read-out: Percentage damage caused to weed species, post-emergence, IPOHE
Procedure, shortened: as §1

[4] = system: Amaranthus retroflexus (AMARE); assay: as above; details: 312 h, 1,000 g/ha, evaluated after 13 days, 100=total damage, 0=no damage, read-out: Percentage damage caused to weed species, post-emergence, AMARE
Procedure, shortened: as §1

[5] = system: Echinochloa crus-galli (ECHCG); assay: as above; details: 312 h, 1,000 g/ha, evaluated after 13 days, 100=total damage, 0=no damage, read-out: Percentage damage caused to weed species, post-emergence, ECHCG
Procedure, shortened: as §1

Solanum nigrum (SOLNI) [6] = assay: as above; details: 312 h, 1,000 g/ha, evaluated after 13 days, 100=total damage, 0=no damage, read-out: Percentage damage caused to weed species, post-emergence, SOLNI
Procedure, shortened: as §1

Setaria faberi (SETFA) [7] = assay: Pre-emergence biological efficacy, glasshouse pot test; details: 312 h, 1,000 g/ha, evaluated after 13 days, 100=total damage, 0=no damage, read-out: Percentage damage caused to weed species, pre-emergence, SETFA
Procedure, shortened: (§2)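 Pre-emergence spray, day 1 post-sowing; 1000 or 250 g/ha in acetone/water 50:50 + 0.5% Tween 20. Glasshouse 24/16 °C, 14 h light, 65% RH, watered twice daily. Visual damage score at 13 d, 0–100.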

[8] = system: Alopecurus myosuroides (ALOMY); assay: as above; details: 312 h, 1,000 g/ha, evaluated after 13 days, 100=total damage, 0=no damage, read-out: Percentage damage caused to weed species, pre-emergence, ALOMY
Procedure, shortened: as §2

[9] = system: Ipomea hederaceae (IPOHE); assay: as above; details: Ipomoea hederacea, 312 h, 1,000 g/ha, evaluated after 13 days, 100=total damage, 0=no damage, read-out: Percentage damage caused to weed species, pre-emergence, IPOHE
Procedure, shortened: as §2

[10] = system: Amaranthus retroflexus (AMARE); assay: as above; details: 312 h, 1,000 g/ha, evaluated after 13 days, 100=total damage, 0=no damage, read-out: Percentage damage caused to weed species, pre-emergence, AMARE
Procedure, shortened: as §2

[11] = system: Echinochloa crus-galli (ECHCG); assay: as above; details: 312 h, 1,000 g/ha, evaluated after 13 days, 100=total damage, 0=no damage, read-out: Percentage damage caused to weed species, pre-emergence, ECHCG
Procedure, shortened: as §2

Solanum nigrum (SOLNI) [12] = assay: as above; details: 312 h, 1,000 g/ha, evaluated after 13 days, 100=total damage, 0=no damage, read-out: Percentage damage caused to weed species, pre-emergence, SOLNI
Procedure, shortened: as §2

Compound: COC(=O)c1nc(Cl)cc(NCc2cccnc2)c1Cl [Compound 78-2, 3,6-Dichloro-4-(pyridin-3-ylmethylamino)-pyridine-2-carboxylic acid methyl ester]
- pest or weed control at 1000 g/ha (Setaria faberi (SETFA) [1]): 50%
- pest or weed control at 1000 g/ha [2]: 20%
- pest or weed control at 1000 g/ha [3]: 70%
- pest or weed control at 1000 g/ha [4]: 100%
- pest or weed control at 1000 g/ha [5]: 20%
- pest or weed control at 1000 g/ha (Solanum nigrum (SOLNI) [6]): 100%
- pest or weed control at 1000 g/ha (Setaria faberi (SETFA) [7]): 50%
- pest or weed control at 1000 g/ha [8]: 40%
- pest or weed control at 1000 g/ha [9]: 90%
- pest or weed control at 1000 g/ha [10]: 100%
- pest or weed control at 1000 g/ha [11]: 20%
- pest or weed control at 1000 g/ha (Solanum nigrum (SOLNI) [12]): 100%

Compound: COC(=O)c1nc(Cl)cc(NCc2ccncc2)c1Cl [Compound 80-2, 3,6-Dichloro-4-(pyridin-4-ylmethylamino)-pyridine-2-carboxylic acid methyl ester]
- pest or weed control at 1000 g/ha (Setaria faberi (SETFA) [1]): 50%
- pest or weed control at 1000 g/ha [2]: 40%
- pest or weed control at 1000 g/ha [3]: 70%
- pest or weed control at 1000 g/ha [4]: 90%
- pest or weed control at 1000 g/ha [5]: 60%
- pest or weed control at 1000 g/ha (Solanum nigrum (SOLNI) [6]): 100%
- pest or weed control at 1000 g/ha (Setaria faberi (SETFA) [7]): 80%
- pest or weed control at 1000 g/ha [8]: 70%
- pest or weed control at 1000 g/ha [9]: 90%
- pest or weed control at 1000 g/ha [10]: 100%
- pest or weed control at 1000 g/ha [11]: 20%
- pest or weed control at 1000 g/ha (Solanum nigrum (SOLNI) [12]): 100%

Compound: COC(=O)c1nc(Cl)cc(NCc2cnc(C)cn2)c1Cl [Compound 81-2, 3,6-Dichloro-4-[(5-methylpyrazin-2-ylmethyl)-amino]-pyridine-2-carboxylic acid methyl ester]
- pest or weed control at 1000 g/ha (Setaria faberi (SETFA) [1]): 80%
- pest or weed control at 1000 g/ha [2]: 40%
- pest or weed control at 1000 g/ha [3]: 60%
- pest or weed control at 1000 g/ha [4]: 100%
- pest or weed control at 1000 g/ha [5]: 40%
- pest or weed control at 1000 g/ha (Solanum nigrum (SOLNI) [6]): 100%
- pest or weed control at 1000 g/ha (Setaria faberi (SETFA) [7]): 70%
- pest or weed control at 1000 g/ha [8]: 70%
- pest or weed control at 1000 g/ha [9]: 90%
- pest or weed control at 1000 g/ha [10]: 100%
- pest or weed control at 1000 g/ha [11]: 70%
- pest or weed control at 1000 g/ha (Solanum nigrum (SOLNI) [12]): 100%
